From ChEMBL document CHEMBL5331054, “Antibacterial quaternary ammonium agents: Chemical diversity and biological mechanism” (Eur J Med Chem, 2022)

What was measured:
Staphylococcus aureus [1] = assay: Antibacterial activity against Staphylococcus aureus assessed as log reduction in bacterial load measured after 5 mins; assay type: functional
Escherichia coli [2] = assay: Antibacterial activity against Escherichia coli assessed as log reduction in bacterial load measured after 5 mins; assay type: functional
Staphylococcus aureus [3] = assay: Antibacterial activity against Staphylococcus aureus NBRC 12732 assessed as reduction in bacterial growth by CLSI based broth microdilution method; assay type: functional
Escherichia coli [4] = assay: Antibacterial activity against Escherichia coli ATCC 25922 assessed as reduction in bacterial growth incubated for 24 hrs by micro-dilution method; assay type: functional
Staphylococcus aureus [5] = assay: Antibacterial activity against methicillin-sensitive Staphylococcus aureus assessed as reduction microbial growth; assay type: functional
Staphylococcus aureus [6] = assay: Antibacterial activity against Staphylococcus aureus ATCC 700699 assessed as reduction in bacterial growth inhibition incubated for 24 hrs by microbroth-dilution method; assay type: functional
Staphylococcus aureus [7] = assay: Antibiofilm activity against methicillin-resistant Staphylococcus aureus SH1000 assessed as reduction in bacterial growth; assay type: functional
Staphylococcus aureus [8] = assay: Antimicrobial activity against community acquired methicillin-resistant Staphylococcus aureus SH1000; assay type: functional
Pseudomonas aeruginosa [9] = assay: Antibacterial activity against Pseudomonas aeruginosa assessed as inhibition of bacterial cell growth; assay type: functional
Klebsiella pneumoniae = assay: Antibacterial activity against Klebsiella pneumoniae assessed as reduction in bacterial growth; assay type: functional
Escherichia coli [10] = assay: Antibacterial activity against Escherichia coli assessed as reduction bacterial cell growth; assay type: functional
Acinetobacter baumannii = assay: Antibacterial activity against Acinetobacter baumannii assessed as inhibition of bacterial cell growth; assay type: functional
Staphylococcus aureus [11] = assay: Antibacterial activity against methicillin-resistant Staphylococcus aureus assessed as bacterial growth inhibition; assay type: functional
Staphylococcus aureus [12] = assay: Antibacterial activity against Staphylococcus aureus assessed as reduction in bacterial growth inhibition measured after 18 to 24 hrs by micro-broth dilution method; assay type: functional; details: time 18-24 hrs
Staphylococcus aureus [13] = assay: Antibacterial activity against Staphylococcus aureus assessed as bacterial growth inhibition incubated for 72 hrs by microdilution assay; assay type: functional, organism-based; details: for MIC: Staphylococcus aureus, time 72 hrs
Pseudomonas aeruginosa [14] = assay: Antibacterial activity against Pseudomonas aeruginosa assessed as bacterial growth inhibition incubated for 72 hrs by microdilution method; assay type: functional
Escherichia coli [15] = assay: Antibacterial activity against Escherichia coli assessed as bacterial growth inhibition incubated for 72 hrs by microdilution method; assay type: functional
Staphylococcus aureus [16] = assay: Antibacterial activity against methicillin-resistant Staphylococcus aureus assessed as log reduction in bacterial load measured after 60 mins; assay type: functional; details: 1 h
Enterococcus faecalis [17] = assay: Antibiofilm activity against Enterococcus faecalis assessed as reduction in bacterial growth by crystal violet based staining assay; assay type: functional
Escherichia coli [18] = assay: Antibiofilm activity against Escherichia coli assessed as reduction in bacterial growth by crystal violet based staining assay; assay type: functional
Staphylococcus aureus [19] = assay: Antibiofilm activity against Staphylococcus aureus assessed as reduction in bacterial growth by crystal violet based staining assay; assay type: functional
Pseudomonas aeruginosa [20] = assay: Antibiofilm activity against Pseudomonas aeruginosa assessed as reduction in bacterial growth by crystal violet based staining assay; assay type: functional
Staphylococcus aureus [21] = assay: Antimicrobial activity against Staphylococcus aureus assessed as reduction in bacterial growth; assay type: functional
[22] = tested on: Stenotrophomonas maltophilia; assay: Antibacterial activity against Stenotrophomonas maltophilia assessed as inhibition of bacterial growth; assay type: functional
Enterococcus faecalis [23] = assay: Antibacterial activity against Enterococcus faecalis assessed as reduction in bacterial cell growth; assay type: functional
Staphylococcus aureus [24] = assay: Antibacterial activity against Staphylococcus aureus ATCC 25923 assessed as bacterial growth inhibition incubated for 24 hrs by microdilution method; assay type: functional
[25] = tested on: Staphylococcus epidermidis; assay: Antibacterial activity against Staphylococcus epidermidis ATCC 12228 assessed as bacterial growth inhibition incubated for 24 hrs by microdilution method; assay type: functional
Bacillus cereus = assay: Antibacterial activity against Bacillus cereus assessed as reduction in microbial growth after 18 hrs by MTT based broth dilution method; assay type: functional
Staphylococcus aureus [26] = assay: Antibacterial activity against Staphylococcus aureus ATCC 25923 assessed as reduction in bacterial growth incubated for 24 hrs by micro-dilution method; assay type: functional
Pseudomonas aeruginosa [27] = assay: Antibacterial activity against Pseudomonas aeruginosa ATCC 9027 assessed as reduction in bacterial growth incubated for 24 hrs by micro-dilution method; assay type: functional
Staphylococcus aureus [28] = assay: Antibacterial activity against Staphylococcus aureus ATCC 4163 assessed as reduction in bacterial growth incubated for 24 hrs by micro-dilution method; assay type: functional
Pseudomonas aeruginosa [29] = assay: Antibacterial activity against Pseudomonas aeruginosa NCTC 6749 assessed as reduction in bacterial growth incubated for 24 hrs by micro-dilution method; assay type: functional
Vibrio parahaemolyticus = assay: Antibacterial activity against Vibrio parahaemolyticus ATCC 17802 assessed as reduction in bacterial growth incubated for 24 hrs by micro-dilution method; assay type: functional
Staphylococcus aureus [30] = assay: Antibacterial activity against Staphylococcus aureus […] assessed as reduction in bacterial growth inhibition measured after 24 hrs; assay type: functional
Enterococcus faecalis [31] = assay: Antibacterial activity against Enterococcus faecalis assessed as bacterial growth inhibition incubated for 72 hrs by microdilution method; assay type: functional
Streptococcus pyogenes = assay: Antibacterial activity against Streptococcus pyogenes ATCC 19615 assessed as reduction in bacterial growth incubated for 18 hrs by micro-broth dilution assay; assay type: functional
Staphylococcus aureus [32] = assay: Antibacterial activity against methicillin- resistant Staphylococcus aureus assessed as bacterial growth inhibition incubated for 24 hrs; assay type: functional
[33] = Pseudomonas aeruginosa, 72 h, read-out: MIC
[34] = Escherichia coli, 72 h, read-out: MIC

With `CC1(C)C(=O)N(CCCCCCCCCCCC[n+]2ccccc2)C(=O)N1Cl.[Cl-]` the “log(activity)” value (Staphylococcus aureus [1]) was 6.62 and the “log(activity)” value (Escherichia coli [2]) was 2.16.
`C[N+](CCO)(CCO)CCCCCCCCCCCCSc1nnc(-c2ccccc2)o1.[Br-]` showed an MIC (Staphylococcus aureus [3]) of 6.25 µg/mL.
`CC1(C)[C@@H]2CC[C@H](CC[N+](C)(C)CC[C@H]3CC[C@@H]4C[C@H]3C4(C)C)[C@H]1C2.[I-]` was tested, and the MIC (Escherichia coli [4]) was 5 µg/mL.
`CCCCCCCCCCCC[N+](C)(C)CCC[N+](C)(C)CCC[N+](C)(C)CCCCCCCCCCCC` showed an MIC (Staphylococcus aureus [5]) of 0.5 µM.
Compound `CCCCCCCCCCCCCCCCCC[N+](C)(C)Cc1cnc(C)c(OC(C)=O)c1C.[Cl-]` has an MIC (Staphylococcus aureus [6]) of 1 µg/mL.
`C=CC[N+](CCC[N+](C)(C)CCCCCCCCCC)(CCC[N+](C)(C)CCCCCCCCCC)CCC[N+](C)(C)CCCCCCCCCC.[Br-].[Br-].[Br-].[Br-]` gave an MBEC (Staphylococcus aureus [7]) of 25 µM and an MIC (Staphylococcus aureus [8]) of 0.25 µM.
`CCCCCCCCCCC[n+]1cccc(Oc2cccc(Oc3ccc[n+](CCCCCCCCCCC)c3)c2)c1.[Br-].[Br-]` was tested, and the MIC (Pseudomonas aeruginosa [9]) was < 0.25 µg/mL, the MIC (Klebsiella pneumoniae) was < 0.25 µg/mL and the MIC (Escherichia coli [10]) was < 0.25 µg/mL. The MIC (Acinetobacter baumannii) was < 0.25 µg/mL and the MIC (Staphylococcus aureus [11]) was < 0.25 µg/mL.
`C[N+](C)(C)CCNC(=O)[C@H](Cc1c[nH]c2ccccc12)NC(=O)c1cc(Cl)ccc1NC(=O)c1ccc2ccccc2c1` was tested, and the MIC (Staphylococcus aureus [12]) was 15.6 µM.
With `CCCCCCCCCCCCCCCC[N+](C)(C)c1ccc(C(c2ccccc2)c2ccc([N+](C)(C)C)cc2)cc1.[I-].[I-]` (configuration not stated) the MIC (Staphylococcus aureus [11]) was < 0.25 µg/mL.
`CCCCCCCCCCCCOC(=O)C[N+](C)(C)CCC[N+](C)(C)CC(=O)OCCCCCCCCCCCC.[Cl-].[Cl-]` showed an IC50 (Staphylococcus aureus [13]) of 120 µM, an MIC (Pseudomonas aeruginosa [14]) of 40 µM and an MIC (Escherichia coli [15]) of 200 µM.
`CC1(C)C(=O)N(CCC[N+](C)(C)CC[N+](C)(C)C)C(=O)N1Cl.[Cl-].[Cl-]` was tested, and the “log(activity)” value (Staphylococcus aureus [16]) was 2.36.
With `CCCCCCCCCCCC[N+](C)(C)CC[N+](C)(C)CC[N+](C)(C)CCCCCCCCCCCC` the MIC (Enterococcus faecalis [17]) was < 0.25 µM, the MIC (Escherichia coli [18]) was 0.5 µM and the MIC (Staphylococcus aureus [19]) was < 0.25 µM. For the same compound, the MIC (Pseudomonas aeruginosa [20]) was 1 µM.
Work on `CCCCCCCCCCCC[N+](C)(C)CCOc1ccc(OCC[N+](C)(C)CCCCCCCCCCCC)cc1.[Br-].[Br-]` yielded an MIC (Staphylococcus aureus [21]) of 1 µg/mL, an MIC [22] of 2 µg/mL and an MIC (Enterococcus faecalis [23]) of 1 µg/mL.
Compound `CCCCCCCCCCCCCCOC(=O)[C@H](Cc1ccccc1)[N+](C)(CC)CC` has an MIC (Staphylococcus aureus [24]) of 3.6 µM, an MIC [25] of 4.5 µM and an MIC (Bacillus cereus) of 5.4 µM.
`CC1(C)[C@@H]2CC[C@H](CC[N+](C)(C)CC[C@H]3CC[C@@H]4C[C@H]3C4(C)C)[C@H]1C2.[Cl-]` gave an MIC (Staphylococcus aureus [26]) of 0.625 µg/mL, an MIC (Pseudomonas aeruginosa [27]) of 0.625 µg/mL and an MIC (Escherichia coli [4]) of 0.625 µg/mL.
For `CCCCCCCCCCCC[N+](C)(C)CCNC(=O)C12CC3CC(C1)CC(C(=O)NCC[N+](C)(C)CCCCCCCCCCCC)(C3)C2`, the MIC (Staphylococcus aureus [28]) was 2.3 µM, the MIC (Pseudomonas aeruginosa [29]) was 2.3 µM and the MIC (Vibrio parahaemolyticus) was 0.1 µM. The MIC (Escherichia coli [4]) was 9.4 µM.
`CCOC(=O)c1c[n+](C(C)C)c2cc3c(cc2c1Nc1ccc(OCc2ccccc2)cc1)OCO3` showed an MIC (Staphylococcus aureus [30]) of 3.12 µM.
For `C[N+](C)(C)CC[N+](C)(C)C`, the MIC (Enterococcus faecalis [31]) was > 500 µM, the MIC (Staphylococcus aureus [13]) was > 500 µM and the MIC (Pseudomonas aeruginosa [14]; [33]) was > 500 µM. For the same compound, the MIC (Escherichia coli [15]; [34]) was > 500 µM.
`CCCCCCCCCCC[n+]1cccc(Oc2ccc(Oc3ccc[n+](CCCCCCCCCCC)c3)cc2)c1.[Br-].[Br-]` was tested, and the MIC (Staphylococcus aureus [11]) was < 0.25 µg/mL.
For `CCCCCCCCCCCCCCC[n+]1ccn(Cc2ccccc2)c1.[Br-]`, the MIC (Streptococcus pyogenes) was 0.03 µg/mL.
Work on `CCCCCCCCCC[N+](C)(C)CCOc1ccc(OCC[N+](C)(C)CCCCCCCCCC)cc1.[Br-].[Br-]` yielded an MIC (Staphylococcus aureus [21]) of 0.5 µg/mL, an MIC [22] of 0.5 µg/mL and an MIC (Enterococcus faecalis [23]) of 0.25 µg/mL.
`CCCCCCCCCC[N+](C)(C)CCCCCCCCCC` [DIDECYLDIMETHYLAMMONIUM CHLORIDE] gave an MIC (Staphylococcus aureus [32]) of 1 µM and an MIC (Staphylococcus aureus [11]) of 4 µM.
In the case of `C[N+](C)(C)CCCCC[N+](C)(C)C` [PENTAMETHONIUM BROMIDE], the MIC (Enterococcus faecalis [31]) is reported as > 500 µM, the MIC (Staphylococcus aureus [13]) is reported as > 500 µM and the MIC (Pseudomonas aeruginosa [14]; [33]) is reported as > 500 µM. For the same compound, the MIC (Escherichia coli [15]; [34]) was > 500 µM.
